Experimental data from ChEMBL document CHEMBL3832761, “MMV Pathogen Box Bioactivity Data” (2017).
≈ marks a conversion by molar mass, not a printed value.

How the values were obtained:
Format in all cases: functional
[1] = test system: Mycobacterium tuberculosis; assay: AntiMycobacterium tuberculosis activity 1-week 7H9/glucose/BSA/Tx MIC (uM); conditions: 168 h
[2] = test system: Mycobacterium tuberculosis; assay: AntiMycobacterium tuberculosis activity day 21 MIC99 in 7H9/2.5mM butyrate/pH6/0.1mM nitrite MIC99 (uM); conditions: 504 h
[3] = test system: Mycobacterium tuberculosis; assay: AntiMycobacterium tuberculosis activity day 21 in 7H9/2.5mM butyrate/pH6/0.1mM nitrite MIC90 (uM); conditions: 504 h
[4] = test system: Mycobacterium tuberculosis; assay: AntiMycobacterium tuberculosis activity Replicating form: Average MIC90 (uM)
[5] = test system: Mycobacterium tuberculosis; assay: AntiMycobacterium tuberculosis activity 1-week GAST/Fe MIC (uM); conditions: 168 h
[6] = test system: Mycobacterium tuberculosis; assay: AntiMycobacterium tuberculosis activity 1-week 7H9/DPPC/cholesterol/BSA/Tx MIC (uM); conditions: 168 h
[7] = test system: Mycobacterium tuberculosis; assay: AntiMycobacterium tuberculosis activity 1-week 7H9/ADC/Tw MIC (uM); conditions: 168 h
[8] = test system: Mycobacterium tuberculosis; assay: AntiMycobacterium tuberculosis activity 2-week 7H9/DPPC/cholesterol/BSA/Tx MIC (uM); conditions: 336 h
[9] = test system: Mycobacterium tuberculosis; assay: AntiMycobacterium tuberculosis activity 2-week GAST/Fe MIC (uM); conditions: 336 h
[10] = test system: Mycobacterium tuberculosis; assay: AntiMycobacterium tuberculosis activity 2-week 7H9/ADC/Tw MIC (uM); conditions: 336 h
[11] = test system: Mycobacterium tuberculosis; assay: AntiMycobacterium tuberculosis activity 2-week Alamar Blue 7H9/ADC/Tw MIC (uM); conditions: 336 h
[12] = test system: Mycobacterium tuberculosis; assay: (§1) AntiMycobacterium tuberculosis activity day 10 in 7H9/2.5mM butyrate/pH6/0.1mM nitrite MIC90 (uM); conditions: 240 h
[13] = test system: Mycobacterium tuberculosis; assay: AntiMycobacterium tuberculosis activity 2-week 7H9/glucose/BSA/Tx MIC (uM); conditions: 336 h
HepG2 = assay: HepG2 CC50 (uM) Cytotoxicity; conditions: Homo sapiens
[14] = test system: Mycobacterium tuberculosis; assay: AntiMycobacterium tuberculosis activity 2-week Alamar Blue 7H9/cholesterol/BSA/Tx MIC (uM); conditions: 336 h
[15] = test system: Mycobacterium tuberculosis; assay: AntiMycobacterium tuberculosis activity Non-Replicating form: Average MIC90 (uM)
[16] = test system: Mycobacterium tuberculosis; assay: AntiMycobacterium tuberculosis activity 1-week 7H9/cholesterol/BSA/Tx MIC (uM); conditions: 168 h
[17] = test system: Mycobacterium tuberculosis; assay: as §1; conditions: 240 h; remark: listed apart in the source

SMILES	MIC [1] [µM]	MIC [2] [µM]	MIC90 [3] [µM]	MIC90 [4] [µM]	MIC [5] [µM]	MIC [6] [µM]	MIC [7] [µM]	MIC [8] [µM]	MIC [9] [µM]	MIC [10] [µM]	MIC [11] [µM]	MIC90 [12] [µM]	MIC [13] [µM]	CC50 (HepG2) [µM]	MIC [14] [µM]	MIC90 [15] [µM]	MIC [16] [µM]	MIC90 [17] [µM]
COc1ccc2nc(C)cc(OCC(=O)NCc3ccccc3)c2c1	> 50	> 50	> 50	> 100	0.78 (≈ 0.262 µg/mL)	12.5 (≈ 4.2 µg/mL)	> 50	> 50	1.56 (≈ 0.525 µg/mL)	> 50	6.25 (≈ 2.1 µg/mL)	> 50	> 50	> 100	3.13 (≈ 1.05 µg/mL)	27.1 (≈ 9.12 µg/mL)	> 50	> 50
COc1ccc(C2(C(=O)Nc3ccc(Br)cc3)CCCC2)cc1	12.5 (≈ 4.68 µg/mL)	50 (≈ 18.7 µg/mL)	50 (≈ 18.7 µg/mL)	26.5 (≈ 9.93 µg/mL)	19 (≈ 7.11 µg/mL)	12.5 (≈ 4.68 µg/mL)	19 (≈ 7.11 µg/mL)	9.4 (≈ 3.52 µg/mL)	19 (≈ 7.11 µg/mL)	12.5 (≈ 4.68 µg/mL)	12.5 (≈ 4.68 µg/mL)	> 50	12.5 (≈ 4.68 µg/mL)	> 100	12.5 (≈ 4.68 µg/mL)	46.5 (≈ 17.4 µg/mL)	9.4 (≈ 3.52 µg/mL)	50 (≈ 18.7 µg/mL)
CCc1nc2ccc(Cl)cn2c1C(=O)NCc1ccc(N2CCC(c3ccc(OC(F)(F)F)cc3)CC2)cc1 [TELACEBEC]	0.1 (≈ 0.0557 µg/mL)	≤ 0.04	≤ 0.04	0.01 (≈ 0.00557 µg/mL)	< 0.02	< 0.02	> 50	0.02 (≈ 0.0111 µg/mL)	< 0.02	> 50	0.02 (≈ 0.0111 µg/mL)	≤ 0.04	> 50	> 100	0.02 (≈ 0.0111 µg/mL)	0.01 (≈ 0.00557 µg/mL)	< 0.02	≤ 0.04
NC(=O)c1cc(Br)ccc1OCCOc1ccccc1	> 50	> 50	> 50	> 100	6.25 (≈ 2.1 µg/mL)	> 50	> 50	> 50	37 (≈ 12.4 µg/mL)	> 50	> 50	> 50	> 50	> 100	> 50	> 100	50 (≈ 16.8 µg/mL)	50 (≈ 16.8 µg/mL)
CCCCS(=O)(=O)Nc1ccc2cnn(C)c2c1	0.39 (≈ 0.104 µg/mL)	50 (≈ 13.4 µg/mL)	50 (≈ 13.4 µg/mL)	0.69 (≈ 0.184 µg/mL)	0.3 (≈ 0.0802 µg/mL)	0.39 (≈ 0.104 µg/mL)	0.6 (≈ 0.16 µg/mL)	0.6 (≈ 0.16 µg/mL)	0.6 (≈ 0.16 µg/mL)	0.6 (≈ 0.16 µg/mL)	0.6 (≈ 0.16 µg/mL)	> 50	0.78 (≈ 0.209 µg/mL)	> 100	2.3 (≈ 0.615 µg/mL)	1.39 (≈ 0.372 µg/mL)	0.6 (≈ 0.16 µg/mL)	12.5 (≈ 3.34 µg/mL)
O=C(c1cc2ccccc2o1)N1CCN(Cc2ccc3c(c2)OCO3)CC1	> 50	> 50	> 50	> 100	0.1 (≈ 0.0364 µg/mL)	19 (≈ 6.92 µg/mL)	> 50	50 (≈ 18.2 µg/mL)	0.2 (≈ 0.0729 µg/mL)	> 50	12.5 (≈ 4.56 µg/mL)	> 50	> 50	> 100	6.25 (≈ 2.28 µg/mL)	16.6 (≈ 6.07 µg/mL)	37 (≈ 13.5 µg/mL)	50 (≈ 18.2 µg/mL)
CC1=NN(c2nc3ccccc3s2)C(=O)C1Cc1cccc2ccccc12 (configuration not stated)	12.5 (≈ 4.64 µg/mL)	12.5 (≈ 4.64 µg/mL)	12.5 (≈ 4.64 µg/mL)	96.7 (≈ 35.9 µg/mL)	1.56 (≈ 0.579 µg/mL)	12.5 (≈ 4.64 µg/mL)	19 (≈ 7.06 µg/mL)	12.5 (≈ 4.64 µg/mL)	3.13 (≈ 1.16 µg/mL)	25 (≈ 9.29 µg/mL)	25 (≈ 9.29 µg/mL)	12.5 (≈ 4.64 µg/mL)	12.5 (≈ 4.64 µg/mL)	21.9	19 (≈ 7.06 µg/mL)	> 100	12.5 (≈ 4.64 µg/mL)	6.25 (≈ 2.32 µg/mL)
O=C1O[C@@H](CO)CN1c1cc(F)c(C2=CCN(Cc3ccccc3)CC2)c(F)c1	4.7 (≈ 1.88 µg/mL)	> 50	50 (≈ 20 µg/mL)	11.6 (≈ 4.65 µg/mL)	9.4 (≈ 3.76 µg/mL)	9.4 (≈ 3.76 µg/mL)	4.7 (≈ 1.88 µg/mL)	9.4 (≈ 3.76 µg/mL)	9.4 (≈ 3.76 µg/mL)	4.7 (≈ 1.88 µg/mL)	3.13 (≈ 1.25 µg/mL)	> 50	4.7 (≈ 1.88 µg/mL)	38.8	4.7 (≈ 1.88 µg/mL)	19 (≈ 7.6 µg/mL)	4.7 (≈ 1.88 µg/mL)	50 (≈ 20 µg/mL)
COc1cccc(-n2nnnc2S(C)(=O)=O)c1	9.4 (≈ 2.39 µg/mL)	12.5 (≈ 3.18 µg/mL)	12.5 (≈ 3.18 µg/mL)	9.47 (≈ 2.41 µg/mL)	0.78 (≈ 0.198 µg/mL)	12.5 (≈ 3.18 µg/mL)	12.5 (≈ 3.18 µg/mL)	50 (≈ 12.7 µg/mL)	1.2 (≈ 0.305 µg/mL)	25 (≈ 6.36 µg/mL)	25 (≈ 6.36 µg/mL)	6.25 (≈ 1.59 µg/mL)	25 (≈ 6.36 µg/mL)	1.7	50 (≈ 12.7 µg/mL)	3.34 (≈ 0.849 µg/mL)	19 (≈ 4.83 µg/mL)	6.25 (≈ 1.59 µg/mL)
